These results are taken from ChEMBL document CHEMBL1143870, “A new insight into solid-state conformation of macrolide antibiotics” (Bioorg Med Chem, 2008).

The Tmax is the time from dosing to the highest level. As usually defined, the Cmax is the highest concentration seen after dosing. In general, AUC refers to concentration integrated over time. Read a low AUC as low exposure. The bioavailability is dose-corrected exposure relative to a reference, in per cent. One may read the half-life as the time in which the quantity being followed falls by half. Low values mean rapid decline, high ones slow decline. The logD is the decadic logarithm of the distribution of all forms, ionised or not, between an organic phase and buffer at a given pH.

Series [1] is described as follows: Tmax in human at 500 mg, po administered as single dose. The format is ADME, organism-based. The conditions noted are these: in vivo.
Series [2] can be described thus: Cmax in human at 500 mg, po administered as single dose. It counts as ADME, organism-based. Details: dose 500 mg, route oral. The conditions noted are these: in vivo.
The test system of series [3] is Homo sapiens. The series can be described thus: AUC in human at 500 mg, po administered as single dose. It counts as ADME, organism-based, Plasma. Conditions: in vivo.
Series [4] in a line: Oral bioavailability in human at 500 mg administered as single dose. It counts as ADME, organism-based. Conditions: in vivo.
Series [5] can be described thus: Elimination half life in human at 500 mg, po administered as single dose. Conditions: in vivo. The format is ADME, organism-based.
Series [6] in a line: Lipophilicity, log D at pH 8.0. The format is physicochemical. Conditions: buffer.
Series [7] can be described thus: Tmax in human at 150 mg, po administered as single dose. The conditions noted are these: in vivo. It counts as ADME, organism-based.
Series [8] concerns Homo sapiens. The series is described as follows: AUC in human at 150 mg, po administered as single dose. It counts as ADME, organism-based, Plasma. Conditions: in vivo.
Series [9] is described as follows: Oral bioavailability in human at 150 mg administered as single dose. The format is ADME, organism-based. Conditions: in vivo.
The nature of series [10]: Cmax in human at 150 mg, po administered as single dose. It counts as ADME, organism-based. Details: dose 150 mg, route oral. The conditions noted are these: in vivo.
Series [11] in a line: Elimination half life in human at 150 mg, po administered as single dose. It counts as ADME, organism-based. Conditions: in vivo.

Each structure is given as a SMILES string.

Take `CC[C@H]1OC(=O)[C@H](C)[C@@H](O[C@H]2C[C@@](C)(OC)[C@@H](O)[C@H](C)O2)[C@H](C)[C@@H](O[C@@H]2O[C@H](C)C[C@H](N(C)C)[C@H]2O)[C@](C)(OC)C[C@@H](C)C(=O)[C@H](C)[C@@H](O)[C@]1(C)O` [CLARITHROMYCIN]: the Tmax in series [1] came to 2 h. This compound gave a maximum concentration (Cmax) in [2] of 2410 ng/mL. The compound further returned an AUC in series [3] of 18900 ng·h/mL. In addition, the bioavailability in series [4] came to 55%. Besides, in series [5], the half-life was 4.9 h. Moreover, the logD in series [6] was determined as 3.9.

With `CC[C@H]1OC(=O)[C@H](C)[C@@H](O[C@H]2C[C@](C)(OC)[C@H](O)[C@@H](C)O2)[C@H](C)[C@@H](O[C@@H]2O[C@@H](C)C[C@@H](N(C)C)[C@@H]2O)[C@](C)(O)C[C@@H](C)C(=O)[C@H](C)[C@@H](O)[C@]1(C)O` [ERYTHROMYCIN A DIHYDRATE], the Tmax in series [1] was found to be 1 h. Besides, the concentration in series [2] peaked (Cmax) at 1900 ng/mL. For the same compound, the AUC in series [3] came to 5800 ng·h/mL. Also, the bioavailability in [4] amounted to 18%. The compound also had a half-life in series [5] of 1.5 h.

On to `CC[C@H]1OC(=O)[C@H](C)[C@@H](O[C@H]2C[C@@](C)(OC)[C@@H](O)[C@H](C)O2)[C@H](C)[C@@H](O[C@@H]2O[C@H](C)C[C@H](N(C)C)[C@H]2O)[C@](C)(O)C[C@@H](C)/C(=N\OCOCCOC)[C@H](C)[C@@H](O)[C@]1(C)O` [ROXITHROMYCIN], for which the Tmax in [7] is 2.2 h. The same compound returned an AUC in [8] of 81000 ng·h/mL. The bioavailability in series [9] was 72%. The concentration in series [10] peaked (Cmax) at 7900 ng/mL. This compound also gave a half-life in [11] of 10.5 h. In addition, the logD in [6] was found to be 2.5.
